Measurements taken from publication PMC4450297, “Screening Active Compounds from Garcinia Species Native to China Reveals Novel Compounds Targeting the STAT/JAK Signaling Pathway” (BioMed Research International, 2015).
Where two headings read alike, the source gives them in different places.

How the values were obtained:
HuVec = assay: Cell proliferation assay (CellTiter-Glo), control cell line; type: cell-based; settings: Homo sapiens, 72 h
Protocol: All cells were obtained from the cell bank of the American Type Culture Collection (ATCC) and cultured in the supplier's recommended media supplemented with 10% FBS. The cell panel screen was measured using the CellTiter-Glo assay (Promega, Madison, WI) following a standard protocol. Briefly, cancer cells were seeded in 96-well plates and cultured overnight at 37°C with or without 5% CO2 in an incubator. Each compound was dissolved with limited DMSO and diluted to a certain concentration with culture medium and then added to the corresponding well of the cell plate. The final concentration of compound was 20 μM. The control cells (without treatment) received the same amount of DMSO and were incubated under the same conditions. After 72 h cultivation, 100 μL of the CellTiter-Glo reagent was added directly to each well for 10-minute incubation. The plate was then read on a FlexStation 3 microplate luminometer (Molecular Devices, USA) to monitor the luminescence signal generated by the luciferase-catalyzed reaction of luciferin and ATP. The percent of growth inhibition was calculated using the following formula: (untreated cells − treated cells)/(untreated cells − background without cells) ∗ 100.
For proliferation assays, the CellTiter-Glo assay (Promega, Madison, WI) was used to evaluate the proliferation of cancer cells treated with test compounds as described above. Each compound was dissolved in limited DMSO and diluted to various concentrations with culture medium and then added to the corresponding wells. A dose-response curve was plotted, and the IC50 was calculated using XLfit software.

[1] = test system: PUMA, NOXA, and CDIP mRNA in NCI-H1650 cells; assay: Quantitative real-time PCR of proapoptotic genes; type: cell-based, human; settings: 24-hour treatment
Excerpt: The primers for PUMA (Cat. Hs00248075_m1), CDIP1 (Cat. Hs00924663_g1), and NOXA (Cat. Hs00560402_m1) for quantitative PCR were all purchased from Invitrogen. Dissociation curves and no-cDNA controls were generated for each primer pair to detect nonspecific amplification. A standard curve was generated for each primer pair as well as for glyceraldehyde-3-phosphate dehydrogenase (GAPDH; using in this case a predeveloped TaqMan assay), to which gene expression levels were normalized by a comparative threshold cycle method. Finally, a ratio was calculated comparing normalized gene expression values in treated versus untreated controls for each sample.
Total RNA was extracted from the NCI-H1650 cell line using the RNeasy kit (Qiagen). cDNA synthesis was performed using Superscript II RNase H– reverse transcriptase (Life Technologies, Bethesda, MD, USA) to transcribe 2 μg of total RNA primed with 1 μL of 500 μg/mL random hexamers. For quantitative real-time PCR analysis, an ABI TaqMan assay (HS00378697) was used in an ABI 7300 system with the following profile: 95°C for 10 min, followed by 40 cycles of 15 s at 95°C and 60 s at 60°C. PUMA, NOXA, and CDIP1 mRNA levels were normalized by comparison to GAPDH RNA levels in the same samples. Each measurement was performed at least in duplicate.

JAK1 = biological target: T1, JAK1 (Homo sapiens, UniProt P23458); assay: Microfluidic mobility shift enzyme assay; type: biochemical
T1 construct: purchased Carna Bioscience, Inc. (Japan)
T1 sequence (P23458 whole entry): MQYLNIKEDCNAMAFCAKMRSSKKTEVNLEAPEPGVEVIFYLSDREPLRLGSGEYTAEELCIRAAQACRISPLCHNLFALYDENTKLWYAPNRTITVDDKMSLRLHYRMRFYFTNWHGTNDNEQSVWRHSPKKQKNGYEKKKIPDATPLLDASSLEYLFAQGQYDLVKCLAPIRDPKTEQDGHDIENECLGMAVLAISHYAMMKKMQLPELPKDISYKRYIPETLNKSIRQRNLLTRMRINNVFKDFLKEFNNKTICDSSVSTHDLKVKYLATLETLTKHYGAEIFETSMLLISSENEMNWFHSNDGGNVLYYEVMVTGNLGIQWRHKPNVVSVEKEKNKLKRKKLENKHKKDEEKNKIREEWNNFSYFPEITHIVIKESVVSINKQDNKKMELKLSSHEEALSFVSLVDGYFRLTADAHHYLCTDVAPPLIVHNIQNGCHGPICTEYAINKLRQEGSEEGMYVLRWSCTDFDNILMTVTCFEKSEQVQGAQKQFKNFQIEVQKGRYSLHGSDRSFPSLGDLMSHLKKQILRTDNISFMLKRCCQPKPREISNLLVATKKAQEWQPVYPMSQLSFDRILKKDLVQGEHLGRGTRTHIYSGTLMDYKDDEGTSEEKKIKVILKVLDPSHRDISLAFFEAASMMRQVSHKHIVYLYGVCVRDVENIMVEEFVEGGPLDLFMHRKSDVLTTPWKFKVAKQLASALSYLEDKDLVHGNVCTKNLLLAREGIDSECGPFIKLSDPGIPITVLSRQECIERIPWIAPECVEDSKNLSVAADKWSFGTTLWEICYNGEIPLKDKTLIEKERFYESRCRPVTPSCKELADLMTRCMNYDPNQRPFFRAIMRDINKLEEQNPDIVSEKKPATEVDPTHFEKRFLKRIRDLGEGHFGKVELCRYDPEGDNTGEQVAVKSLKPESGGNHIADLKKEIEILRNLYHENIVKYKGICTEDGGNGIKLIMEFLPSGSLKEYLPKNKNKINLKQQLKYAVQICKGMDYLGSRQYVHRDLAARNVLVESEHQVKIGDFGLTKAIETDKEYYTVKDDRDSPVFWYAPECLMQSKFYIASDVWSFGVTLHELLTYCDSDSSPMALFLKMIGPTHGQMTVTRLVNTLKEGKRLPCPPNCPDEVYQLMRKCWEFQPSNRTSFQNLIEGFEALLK
Protocol: (§1) The microfluidic mobility shift enzyme assay was performed in an on-chip incubation mode on a Caliper LabChip 2000 Drug Discovery System (Caliper Life Sciences, Hopkinton, MA). The extent of inhibition by the compounds is measured directly by quantifying the level of both unphosphorylated peptide substrate and phosphorylated product after electrophoretic separation using Caliper's LabChip assay technology. To evaluate the compounds for their target and the mechanism by which the compound affects JAK enzyme activity, the compounds were tested against JAK family kinases (JAK1, JAK2, JAK3, and Tyk2) with the Caliper microfluidic mobility-shift platform. The JAK family kinase enzymes and the FAM-labeled substrates were purchased from Carna Bioscience, Inc. (Japan) and Caliper Bioscience (US), respectively.
(§2) For JAK kinase activity measurement, the test compounds were diluted freshly with assay buffer (100 mM HEP ES, 10 mM MgCl2, 1.5 mM betaine, 0.015% Brij, and 25 mM β-glycerophosphate) and added to 384-well plates. FAM-labeled peptide substrate and ATP in assay buffer were added to the wells. After that, JAK enzymes prepared in assay buffer were also added to the wells and mixed to start the reaction. After a period of incubation at room temperature, the reaction was stopped by stop solution (500 mM EDTA). Finally, the plate was put on a Caliper LabChip 2000 system and a droplet of the reaction mixture was applied for electrophoretic separation in the chips of the machine. The enzyme conversion data then was read out for analysis.

JAK2 = biological target: T2, JAK2 (Homo sapiens, UniProt O60674); assay: Microfluidic mobility shift enzyme assay; type: biochemical
T2 construct: purchased Carna Bioscience, Inc. (Japan)
T2 sequence (O60674 whole entry): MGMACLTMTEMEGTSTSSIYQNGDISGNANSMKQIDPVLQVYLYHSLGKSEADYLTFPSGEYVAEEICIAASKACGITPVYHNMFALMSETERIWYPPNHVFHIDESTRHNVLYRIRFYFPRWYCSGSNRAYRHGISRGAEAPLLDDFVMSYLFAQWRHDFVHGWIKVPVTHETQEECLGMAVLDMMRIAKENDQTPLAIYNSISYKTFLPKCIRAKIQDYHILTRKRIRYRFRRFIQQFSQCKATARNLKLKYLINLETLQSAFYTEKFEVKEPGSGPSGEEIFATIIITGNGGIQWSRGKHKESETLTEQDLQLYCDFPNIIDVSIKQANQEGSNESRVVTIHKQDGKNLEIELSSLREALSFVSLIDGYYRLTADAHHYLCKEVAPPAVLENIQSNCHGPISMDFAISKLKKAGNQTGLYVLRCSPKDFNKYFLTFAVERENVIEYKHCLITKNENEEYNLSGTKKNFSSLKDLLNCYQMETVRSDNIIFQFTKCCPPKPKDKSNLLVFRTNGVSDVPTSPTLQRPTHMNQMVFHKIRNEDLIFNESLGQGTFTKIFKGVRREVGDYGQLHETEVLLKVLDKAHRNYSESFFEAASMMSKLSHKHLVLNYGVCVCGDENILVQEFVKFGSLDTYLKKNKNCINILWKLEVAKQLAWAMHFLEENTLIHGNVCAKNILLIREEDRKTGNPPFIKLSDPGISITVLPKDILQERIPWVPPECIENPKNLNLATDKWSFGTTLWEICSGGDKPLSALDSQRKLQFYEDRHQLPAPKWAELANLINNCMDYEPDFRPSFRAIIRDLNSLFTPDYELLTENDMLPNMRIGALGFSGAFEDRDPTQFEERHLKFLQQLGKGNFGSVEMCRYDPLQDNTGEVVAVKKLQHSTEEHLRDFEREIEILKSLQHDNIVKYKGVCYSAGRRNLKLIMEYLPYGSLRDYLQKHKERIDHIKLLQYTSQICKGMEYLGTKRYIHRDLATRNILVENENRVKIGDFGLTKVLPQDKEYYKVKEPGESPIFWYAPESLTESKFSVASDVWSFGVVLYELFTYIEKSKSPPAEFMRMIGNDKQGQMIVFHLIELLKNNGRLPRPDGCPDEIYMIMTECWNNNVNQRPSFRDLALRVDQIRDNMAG
Protocol: as §1, §2

NCI-H1650 cells = assay: Apoptosis induction assay (Cell Death Detection ELISA); type: cell-based, human; settings: for effect of Z-VAD cotreatment on compound-induced oligonucleosomal fragmentation: NCI-H1650 cells, Z-VAD 10 μmol/L; for NCI-H1650 cells that underwent rapid apoptosis: after 8 h
Protocol: Apoptosis induction assays were performed after 8 or 24 h incubation with compounds using the Cell Death Detection ELISA assay (Roche). Apoptosis induction is represented relative to DMSO-treated controls (set at 1.0). Error bars denote the SEM.

| Structure (SMILES) | IC50 (HuVec) [nM] | induction of CIDP mRNA [1] | induction of NOXA mRNA [1] | induction of PUMA mRNA [1] | inhibition of JAK1 kinase activity (in words) (JAK1) | IC50 (JAK1; JAK1 enzyme, read-out: IC50) [nM] | difference in IC50s between JAK2 and Tyk2 (JAK2) [fold] | inhibition of JAK2 kinase activity (in words) (JAK2) | IC50 (JAK2; JAK2 enzyme, read-out: IC50) [nM] | effect of Z-VAD cotreatment on compound-induced oligonucleosomal fragmentation (NCI-H1650 cells) | NCI-H1650 cells that underwent rapid apoptosis (NCI-H1650 cells) [%] | IC50 (JAK1) [nM] | IC50 (JAK2; IC50, JAK2 enzyme) [nM] | apoptosis induction (oligonucleosomal fragmentation) (NCI-H1650 cells; after 24 h) |
| --- | --- | --- | --- | --- | --- | --- | --- | --- | --- | --- | --- | --- | --- | --- |
| CC(C)=CCC/C(C)=C/Cc1c(O)c(CC=C(C)C)c2c(c1O)C(=O)C1=C[C@@H]3C[C@H]4C(C)(C)O[C@@](C/C=C(\C)C(=O)O)(C3=O)[C@@]14O2 [GB63] | 1900 ± 30 | no effect | no effect | no effect |  |  |  |  |  |  |  |  |  |  |
| CC(C)=CCC[C@@]1(C)C=Cc2c(O)c3c(c(C/C=C(\C)CO)c2O1)O[C@]12C(=C[C@@H]4C[C@H]1C(C)(C)O[C@@]2(C/C=C(/C)C(=O)O)C4=O)C3=O [GB40, 35-hydroxyepigambogic acid] | 680 ± 10 | 2 fold | greater than 5 fold | 2 fold | minor inhibitory effects | 14200 ± 400 | 10 | significantly inhibited | 1400 ± 100 | completely suppressed | > 90 |  |  |  |
| CC(C)=CCC[C@@]1(C)C=Cc2c(O)c3c(c(CCC(C)(C)O)c2O1)O[C@]12C(=C[C@@H]4C[C@H]1C(C)(C)O[C@@]2(C/C=C(/C)C(=O)O)C4=O)C3=O [GB39, 33-hydroxyepigambogic acid] | 890 ± 90 | 3 fold | greater than 5 fold | 3 fold | minor inhibitory effects | 12200 ± 300 | 10 | significantly inhibited | 1700 ± 100 | completely suppressed | > 90 |  |  |  |
| CC(C)=CCC/C(C)=C/Cc1c(O)c(CC=C(C)C)c2c(c1O)C(=O)C1=C[C@@H]3C[C@H]4C(C)(C)O[C@@](C/C=C(\C)C=O)(C3=O)[C@@]14O2 [GB49] | 1470 ± 70 | no effect | no effect | no effect |  |  |  |  |  |  |  |  |  |  |
| CC(C)=CCC/C(C)=C/Cc1c(O)c(CC=C(C)C)c2c(c1O)C(=O)C1=C[C@@H]3C[C@H]4C(C)(C)O[C@@](CC=C(C)C)(C3=O)[C@@]14O2 [GB32] | 1630 ± 60 | no effect | no effect | no effect | no effect |  |  | minor inhibition |  | completely suppressed |  | > 40000 | 37300 ± 6900 | significant apoptosis |
